Laboratory results taken from paper PMC4020900 (International Journal of Nanomedicine, 2014).
Converted amounts (≈) assume the structure as drawn.

Key:
[1] = system: Caco-2 cells; assay: Stability and metabolism on incubation with Caco-2 cells; format: in vitro ADME, human; conditions: 100 μg/mL, incubated with Caco-2 cells, pH 7.4 HBSS, 10 mM ascorbic acid, 37°C, 6 hours
[2] = system: Caco-2 cells; assay: Cellular uptake of FITC-conjugated drugs and their niosomes by Caco-2 cells; format: in vitro ADME, human; conditions: 100 μg/mL, 37°C, 6 hours incubation, n=3
[3] = stated in the introduction, method and reference not given; cited from earlier work
[4] = Stability in pH 7.4 HBSS buffer with ascorbic acid; format: physicochemical; conditions: 100 μg/mL, 10 mM ascorbic acid, 37°C, 6 hours
[5] = system: Caco-2 cells; assay: SRB cytotoxicity assay; format: cell-based; conditions: Homo sapiens, Caco-2, 24 h, read-out: IC50 (SRB assay)

O=C(O[C@@H]1Cc2c(O)cc(O)cc2O[C@@H]1c1cc(O)c(O)c(O)c1)c1cc(O)c(O)c(O)c1 [EGCG, (−)-epigallocatechin gallate]
Decrease of drug [1]: 13.0%
Uptake ± SD [2]: 0.90±0.14 μg/mg protein
Octanol/buffer partition coefficient P [3]: 0.86±0.03
Drug present and unchanged [4]: 86.2%
IC50 [5]: 125 ± 3.3 µg/mL (≈ 272 µM)
